Test results as given in patent US6926892B2, “Protecting plants from oomycete pathogens by treatment with compositions containing serratamolide and oocydin a from Serratia marcescens” (HMV Corporation, priority 2000, dated 2005).
In brackets after ≈: the same amount, converted by molar mass.

Key:
Oomycetes [1] = details: from Strobel et al. 1999 / U.S. Ser. No. 09/858,871; cited from earlier work
Botrytis cinera = assay: Minimum inhibitory concentration in potato dextrose broth, 24-well plate; assay type: cell-based; details: 3 days, MIC = concentration needed to effect a 10% reduction in growth (OD 660 nm)
Experimental: (§1) 900 μl of potato dextrose broth was placed into the wells of a sterile 24-well culture plate. Serratamolide (in methanol) was added to the wells in concentrations of 0, 3.3, 10, 33 and 100 μg/ml. 20 μl methanol was added to one row to serve as a control. Fungal cultures to be tested were grown on PDA plates for three to five days. Pieces of agar containing the cultures were transferred to sterile microfuge tubes containing 0.5 ml sterile distilled water and broken up using a sterile Teflon pestle. 100 μl of PD broth containing the mycelia was added to each well, and growth inhibition was monitored over 3 days. At the end of 3 days cultures were transferred to a ground glass homogenizer, gently broken up, diluted in distilled water and the optical density measured using a Spectronic 20 spectrophotometer at 660 nm. The minimum inhibitory concentration was determined as the concentration of serratamolide compound needed to effect a 10% reduction in growth.

Phytophthora cactorum = assay: as above; assay type: cell-based; details: 3 days, MIC = concentration needed to effect a 10% reduction in growth (OD 660 nm)
Experimental: as §1

Phytophthora capsici = assay: as above; assay type: cell-based; details: 3 days, MIC = concentration needed to effect a 10% reduction in growth (OD 660 nm)
Experimental: as §1

Phytophtora parasitica = assay: as above; assay type: cell-based; details: 3 days, MIC = concentration needed to effect a 10% reduction in growth (OD 660 nm)
Experimental: as §1

Pythium ultimum = assay: as above; assay type: cell-based; details: 3 days, MIC = concentration needed to effect a 10% reduction in growth (OD 660 nm)
Experimental: as §1

Rhizoctonia solani = assay: as above; assay type: cell-based; details: 3 days, MIC = concentration needed to effect a 10% reduction in growth (OD 660 nm)
Experimental: as §1

Oomycetes [2] = assay: Minimum inhibitory concentration tests against a number of plant fungal pathogens (summary); assay type: cell-based; details: e.g., P. cactorum, P. capsici, P. ultimum
Experimental: as §1

Row | SMILES | Activity against Oomycetes, MICs relative to metalaxyl (Oomycetes [1]) | Minimum inhibitory concentration (Botrytis cinera) [µg/mL] | Minimum inhibitory concentration (Phytophthora cactorum) [µg/mL] | Minimum inhibitory concentration (Phytophthora capsici) [µg/mL] | Minimum inhibitory concentration (Phytophtora parasitica) [µg/mL] | Minimum inhibitory concentration (Pythium ultimum) [µg/mL] | Minimum inhibitory concentration (Rhizoctonia solani) [µg/mL] | Spectrum of activity among plant pathogens tested (Oomycetes [2])
1 | CC(=O)OC1CC(=O)O[C@H]2C[C@H](CC/C(Cl)=C\C/C=C\1C)O[C@H]2[C@@H](O)/C=C(\C)CC(=O)O (some centres unmarked) [oocydin A] | selective lethal activity against Oomycetes at MICs lower or similar to those noted for metalaxyl |  |  |  |  |  |  | 
2 | CCCCCCC[C@@H]1CC(=O)N[C@@H](CO)C(=O)O[C@H](CCCCCCC)CC(=O)N[C@@H](CO)C(=O)O1 [serratamolide] |  | >100 | 60 (≈ 117 µM) | 10 (≈ 19.4 µM) | 6 (≈ 11.7 µM) | 6 (≈ 11.7 µM) | >100 | active against Oomycetes only
